Read-outs that look alike come from different tables or passages of the source.
What was measured:
WT BCL-2 = target: T1, WT BCL-2 (Homo sapiens, UniProt P10415); assay: AlphaScreen displacement binary binding assay, WT BCL-2
T1 construct: BCL-xL (aa 2-212) and BCL-2 (aa 1-207) transformed cells were grown in LB broth; made in house; host or cells: E. coli BL21 (DE3) codon plus
Procedure: To test the binary/ternary binding affinities of compounds to BCL-2/BCL-xL, AlphaScreen displacement binding assay was performed to test the capabilities of testing compounds to displace a Biotin-tagged Bim (Biotin-[…]) or Bad (Biotin-[…]) from BCL-2 or BCL-xL for BCL-2 and BCL-xL binding affinities, respectively. All reagents were diluted in assay buffer of 25 mM HEPES, pH 7.5, 150 mM NaCl, 0.1% BSA, and 0.005% tween 20 prior incubation. To a 96-well PCR plate (VWR, Cat. No. 82006-636) was added 10 μL Biotin-tagged Bim (15 nM for WT or 50 nM for mutants) or Bad (15 nM for WT or 50 nM for mutants), 10 μL series diluted compounds solution (2 or 3 or 4× dilution), and 10 μL self-made 6×His tagged BCL-2 WT or mutants (25 nM WT or 50 nM mutants) or 10 μL self-made BCL-xL WT and mutants (10 nM WT or 50 nM mutants). After incubating at room temperature for 30 min, 5 µL of 160 μg/mL of anti-6×His acceptor beads (PerkinElmer, Cat. No. AL128M) was added and the mixture was incubated at room temperature for 15 min. 5 µL of 160 μg/mL of streptavidin donor beads (PerkinElmer, 6760002) was then added under subdued light and the mixture was incubated at dark for 30 min before being transferred to two adjacent wells (17 µL each) of 384-well white OptiPlate (PerkinElmer, Cat. No. 6008280). The luminescence signal was detected on a Biotek’s Synergy Neo2 multimode plate reader installed with an AphaScreen filter cube. The Ki values of each compounds were calculated by fitting data into the “Binding-competitive, One site-Fit Ki” function in GraphPad Prism (9.2.0) based on concentrations of Biotin–peptide used and experimentally determined Kd values of each 6×His protein &&&and Biotin–Peptide pair.

BCL-xL = target: T2, BCL-xL (Homo sapiens, UniProt Q07817); assay: Immunoblot degradation of BCL-xL in Jurkat cells; assay type: cell-based; conditions: for DC50: 16 h treatment, immunoblot
T2 construct: endogenous in cells; host or cells: Jurkat (ATCC TIB-152)
Procedure: The data are presented as mean ± s.d. from three replicate cell cultures in a representative experiment for Jurkat cells. h Left, WH244 induces polyubiquitination of WT, K22R BCL-2 and to some extent K17R but not K17/22R BCL-2 in 293T cells. 293T cells were co-transfected as indicated with Flag-BCL−2 WT or mutants and HA-tagged ubiquitin (HA-Ub) plasmids. After 36 h, cells were pretreated with MG132 (10 µM) for 2 h and then treated with or without WH244 (1 μM) for 5 h. The Flag-tagged proteins were immunoprecipitated (IP) and immunoblotted with HA or Flag antibody. Right, The input blot for this assay. Data are a representative of two independent experiments. Source data are provided as Source Data file.
Cells were collected, washed once with ice-cold phosphate-buffered saline, pH 7.2 (PBS, cat. no. 20012027; Thermo Fisher Scientific) and lysed in RIPA lysis buffer (Cat. No. BP-115DG, Boston Bio Products, Ashland, MA, USA) supplemented with protease and phosphatase inhibitor cocktails (Cat. No. PPC1010, Sigma-Aldrich, St. Louis, MO, USA) through sonication. The samples were centrifuged at 15,000 × g for 5 min and the supernatants were transferred into a new tube. The protein concentration in the supernatants was determined using the Pierce BCA protein Assay kit (cat. no. 23225, Thermo Fisher Scientific). The protein concentration was normalized, and the samples were reduced in 4× Laemmli’s SDS-sample buffer (cat. no. BP-110R, Boston Bio Products) and denatured at 95 °C for 5 min. An equal amount of protein samples (20–40 μg per lane) were resolved using precast 4–20% Tris-glycine gels (Mini-PROTEAN TGX, cat. no. 456–1094, Bio-Rad), and resolved proteins were transferred onto 0.2-μm pore size polyvinylidene difluoride (PVDF) blotting membranes (cat. no. LC2002, Thermo Fisher Scientific) using mini trans-blot electrophoretic transfer cell (Bio-Rad). The membranes were blocked with non-fat dry milk (5% wt/vol) in 1×Tris- buffered saline-Tween-20 (TBST) for 1 h at room temperature, and were subsequently probed with primary antibodies at a pre-determined optimal concentration in non-fat dry milk (5% wt/vol in TBST) overnight at 4 °C. The membranes were washed three times (15 min each) in TBST and then incubated with horse radish peroxidase (HRP)-conjugated secondary antibodies for 1 h at room temperature. Following sufficient washing with TBST, the membranes were exposed with ECL Western Blotting Substrate (Bio-Rad), and the signal was detected using the ChemiDoc MP Imaging System (Bio-Rad) and quantified using the ImageJ (v1.53a) software from NIH. Antibodies were purchased from Cell Signaling Technologies (CST) and the dilutions are as follows: BCL-xL (Cat. No. 2762S, 1:1000) and BCL-2 (Cat. No. 2870S, 1:1000). β-actin antibody was purchased from MP Biomedicals (Cat. No. 8691001, 1:20,000).

[1] = mean ± s.d., n=3, read-out: Ki (nM, n=3), BCL-2 WT
[2] = response letter, Supplementary Fig. 11, read-out: Ki, binary complex with BCL-2

T2 sequence (Q07817 whole entry): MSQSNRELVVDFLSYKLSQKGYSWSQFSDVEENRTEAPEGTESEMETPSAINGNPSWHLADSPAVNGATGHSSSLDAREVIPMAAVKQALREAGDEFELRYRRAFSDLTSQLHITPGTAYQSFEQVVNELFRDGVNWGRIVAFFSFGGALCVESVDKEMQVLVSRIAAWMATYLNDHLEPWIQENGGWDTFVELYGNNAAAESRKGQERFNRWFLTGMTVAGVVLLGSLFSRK
T1 sequence (P10415 1-207): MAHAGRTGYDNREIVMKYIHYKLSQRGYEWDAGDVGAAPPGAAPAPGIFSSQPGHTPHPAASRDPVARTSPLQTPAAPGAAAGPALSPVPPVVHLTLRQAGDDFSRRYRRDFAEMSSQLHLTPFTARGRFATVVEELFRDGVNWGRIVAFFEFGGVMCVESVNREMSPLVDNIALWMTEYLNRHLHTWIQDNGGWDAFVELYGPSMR

Cc1ncsc1-c1ccc(C(C)NC(=O)C2CC(O)CN2C(=O)C(NC(=O)CCCCCCC(=O)N2CCN(CC3(C)CCC(c4ccc(Cl)cc4)=C(CN4CCN(c5ccc(C(=O)NS(=O)(=O)c6ccc(NC(CCN7CCOCC7)CSc7ccccc7)c(S(=O)(=O)C(F)(F)F)c6)cc5)CC4)C3)CC2)C(C)(C)C)cc1 (stereo not drawn) [753b]
Kd (WT BCL-2; Supplementary Fig. 11): ~23.4 nM
Ki (WT BCL-2; [1]): 24.9 ± 5.4 nM
Ki (WT BCL-2; [2]): 23.4 nM
DC50 (BCL-xL; Jurkat cells): 3.7 nM

Cc1ncsc1-c1ccc([C@H](C)NC(=O)[C@@H]2C[C@@H](O)CN2C(=O)[C@@H](NC(=O)CN2CCN(CC(=O)N3CCN(C[C@]4(C)CCC(c5ccc(Cl)cc5)=C(CN5CCN(c6ccc(C(=O)NS(=O)(=O)c7ccc(N[C@H](CCN8C[C@@H]9C[C@H]8CO9)CSc8ccccc8)c(S(=O)(=O)C(F)(F)F)c7)cc6)CC5)C4)CC3)CC2)C(C)(C)C)cc1 [WH244]
Kd (WT BCL-2; Supplementary Fig. 11): ~3.1 nM
Ki (WT BCL-2; [1]): 3.5 ± 0.5 nM
Ki (WT BCL-2; [2]): 3.1 nM
Earliest time at which BCL-xL degradation is seen (BCL-xL; 0.1 μM WH244, Jurkat cells): 1 h
Time to nearly complete degradation of BCL-xL (BCL-xL; 0.1 μM WH244, Jurkat cells): 4 h
Time for BCL-xL level to recover to pretreatment level after removal of degrader (BCL-xL; 0.1 μM WH244 for 16 h, then fresh medium, Jurkat cells): 24 to 48 h
DC50 fold better than 753b (BCL-xL) (BCL-xL; Jurkat cells, 16 h): ~ 6.2 fold
DC50 (BCL-xL; Jurkat cells): 0.6 nM

Source: paper PMC10979003, “Development and crystal structures of a potent second-generation dual degrader of BCL-2 and BCL-xL” (Nature Communications, 2024)
